Data taken from publication PMC10759609, “A novel PDPN antagonist peptide CY12-RP2 inhibits melanoma growth via Wnt/β-catenin and modulates the immune cells” (Journal of Experimental & Clinical Cancer Research : CR, 2024).
pIC50: −log10 of the molar value. Read-outs that look alike come from different tables or passages of the source. Peptide text beside a SMILES is read from it.

Assays:
A375 cells = assay type: cell-based
Description: (§1) Cell viability was determined using a CCK8 kit. Melanoma cells were plated into 96-well plates at a density of 5 × 10^3 cells/well. The cells were then treated with peptides at the determined concentrations for 24, 48, and 72 h. The CCK-8 (10 μL/ well) was pipetted into each well and the cells were incubated at 37 °C for 1~3 h. The viable cells were calculated by performing absorbance readings at 450 nm using a microplate reader (BioTek).

A875 cells [1] = assay type: cell-based
Description: as §1

A875 cells [2] = assay: Annexin V/PI flow cytometry apoptosis, A875; assay type: cell-based; settings: 0, 50, 100, 200 μM, 48 h
Description: In this study, cell apoptosis was analyzed by flow cytometry using a PI/FITC-Annexin V Apoptosis Detection Kit (4A Biotech, Beijing, China). Briefly, melanoma cells were collected and washed with pre-chilled PBS, then resuspended with Annexin V staining buffer. Afterward, fluorescein isothiocyanate (FITC)-Annexin V and PI were stained for 5 min at RT, and then immediately detected using a Beckman flow cytometer. To investigate immune cell infiltration of the lung and spleen in the pulmonary metastasis mouse model, the surface and nuclear antigen staining were performed following the experimental procedure. Fluorescence-labeled mAb against CD3, CD25, CD49b, GranzymeB, CD11b, CD86, and CD206 were purchased from BioLegend (BioLegend, San Diego, CA), and CD4, CD8, and Foxp3 from Tonbo. […] Finally, the samples were measured using flow cytometry.
Fig. 3 Biopanning of PDPN antagonist peptides. […] B Immunofluorescence staining was performed to quantify the colocalization of CY12-RP2 and PDPN protein in melanoma cell lines (A375, A875). […] D Suppression efficiency of melanoma cells growth by CY12-RP2 was measured by CCK8 assay at various concentrations for 24, 48 or 72 h, respectively. […] G, H The 3D cellular spheres were treated with the set concentrations of CY12-RP2 for 5 days and cell morphology was assessed (G), relative spheroid diameter was measured (H). […]

PBMC = PBMC cytokines by ELISA; assay type: cell-based, healthy donor; settings: 50 µM, 48 h
Description: PBMCs (Shenzhen People's Hospital. Shenzhen, China)) from a healthy donor were isolated using a density gradient centrifugation procedure. Firstly, the immune cell proportions analysis of PBMCs was measured using flow cytometry. We then investigated the effect of CY12-RP2 on the cytokines in PBMCs using ELISA assays. Briefly, PBMCs (5 × 10^5 cells/well) were cultured in 24-well plates with RPMI1640 containing 10% FBS for 24 h, and the cells were stimulated with CY12-RP2 (50 µM) for 48 h. Afterward, supernatants were collected for subsequent assays. […] The experimental results were then observed by crystal violet staining after 48 h. The levels of major inflammatory cytokines, including TNF-α, IL-1β, IL-2, TGF-β, IFN-γ, and IL-10, were measured using an ELISA kit (Shenzhen Ziker Biological Technology, Shenzen, China). Briefly, culture supernatants of cells and serum of pulmonary metastasis mouse model were respectively collected and added to an antibody pre-coated 96-well plates, and then followed up according to the manufacturer's instructions.

[3] = tested on: 3D melanoma spheroid (A375); assay: 3D melanoma spheroid / PBMC co-culture; assay type: cell-based; settings: 0, 2, 10, 50 μM, with increasing concentrations
Description: Prepared melanoma cells spheroids were plated in 48-well plates. Following incubation for 3 days, the spheroids were exposed to different concentrations (0, 50, 100 and 200 μM) of CY12-RP2, and changes in spheroid diameter were detected after 5 days of treatment. Additionally, melanoma cell spheroids were treated with various concentrations of CY12-RP2 as described previously, and after 72 h, the spheroids were stained for immunofluorescence with caspase 3 primary antibody. The specific experimental procedures refer to the following immunofluorescence analysis. Additionally, we co-cultured peptide-stimulated PBMC with spheroids to determine the tumor-killing ability of activated PBMC.
Fig. 6 Influence of CY12-RP2 on the immune-mediated anti-tumor capacity of PBMC in vitro and in vivo. A The procedure of PBMC isolation from donor peripheral blood, and the ratio of different immune cells in PBMC was assayed by flow cytometry. B PBMCs were stimulated with CY12-RP2 for 48 h, and the cytokine levels in the supernatant were assayed by ELISA. […] E Brightfield and fluorescent microscopy images of A375 cells (red) co-culture with PBMC (GFP) were stimulated with various concentrations (0, 2, 10, 50 μM) of CY12-RP2. Data are presented as mean ± SD. *p < 0.05, **p < 0.01, ***p < 0.001 versus control

CC(C)C[C@H](NC(=O)[C@H](Cc1ccc(O)cc1)NC(=O)[C@@H](N)[C@@H](C)O)C(=O)N[C@@H](CS)C(=O)N[C@H](C(=O)N[C@@H](C)C(=O)N[C@@H](CS)C(=O)N[C@@H](CC(=O)O)C(=O)N[C@@H](Cc1ccc(O)cc1)C(=O)N[C@H](C(=O)N[C@@H](Cc1c[nH]cn1)C(=O)N[C@@H](Cc1c[nH]cn1)C(=O)O)[C@@H](C)O)[C@@H](C)O [CY12-RP2] (H-TYLCTACDYTHH-OH; N-terminus and C-terminus assumed)
pIC50 (A375 cells; 24 h): 3.22 | pIC50 (A375 cells; 48 h): 3.93 | pIC50 (A375 cells; 72 h): 4.26 | cell growth inhibition (in words) (A375 cells; PDPN overexpressed A375, CCK8, various concentrations): dramatically inhibited cell growth in a dose-dependent manner | pIC50 (A875 cells [1]; 48 h): 3.18 | pIC50 (A875 cells [1]; 72 h): 3.93 | cell growth inhibition (in words) (A875 cells [1]; PDPN underexpressed A875, CCK8, various concentrations): relatively diminished impact | apoptosis rate (A875 cells [2]): milder | IFN-γ level in PBMC supernatant (PBMC): increased | IL-1β level in PBMC supernatant (PBMC): increased | IL-10 level in PBMC supernatant (PBMC): decreased | TGF-β level in PBMC supernatant (PBMC): decreased | TNF-α level in PBMC supernatant (PBMC): increased | tumor-killing capacity of PBMC [3]: increased
